One assay concerns AF9 protein. Nature of the assay: FRAP of AF9-sfGFP in HEK 293T cells (chromatin binding of AF9). The format is cell-based, human. From the text:
In one embodiment, fluorescence recovery after photobleaching (FRAP) may be used to analyze diffusion and binding of proteins in living cells. It has also been used to assess the cellular efficiency of bromodomain inhibitors in living cells.
In the FRAP experiments, the protein of interest is genetically tagged with a fluorescent protein (e.g., GFP) and expressed inside the cell. Then a portion of the fluorescent-tagged protein are photobleached by an intense laser pulse, and the fluorescence recovery of that photobleached region, which is caused by the migration of fluorescent-tagged proteins back into the bleached area, is monitored over time (FIG. 27a). A fluorescence recovery curve can be generated by plotting the fluorescence intensity with time, and the half time (t1/2), which is the time that the fluorescence intensity takes to recover to half, could also be calculated (FIG. 27b).
Since AF9 protein was reported to associate with chromatin by its YEATS domain, we reasoned that the V3 inhibitor would reduce the binding of AF9 to chromatin and increase its mobility. To test this hypothesis, I fused sfGFP to the C-terminal of AF9 protein and replaced the C-terminal sfGFP of V3-NLS and V3C-NLS to a red fluorescence mCherry protein to avoid fluorescence overlap in FRAP experiments. […]
HEK 293T cells were seeded in 3.5 cm confocal dish at a density of 4-6×10^5 cells per well in 2 mL complete growth medium and let them reach 60-80% confluency at the time of transfection. […] An argon laser (488 nm) was used for photobleaching and fluorescence imaging of sfGFP. The detector was set to detect fluorescence between 500 and 550 nm. […] Fluorescence recovery of sfGFP was monitored by a time series imaging.
The average fluorescence intensity was measured for three regions at each imaging time point, a bleached region (Fbl), a non-bleached reference region (Fref) to correct for the FRAP curve for photofading caused by imaging, the location of reference region should be as far apart as possible from the bleached region. […]

The next assay concerns the target T1, CobB (Escherichia coli, UniProt P75960).
T1 construct: endogenous in cells; host or cells: E. coli DH10B
Nature of the assay: ESI-MS of V3 expressed in E. coli with NAM (CobB deacylation). In kind it is cell-based. The protocol:
Since nicotinamide (NAM) is a known inhibitor of the sirtuin family of enzymes, I expressed V3 in the presence of 20 mM NAM.
However, the V3 protein expression level was severely attenuated in the presence of 20 mM NAM (data not shown). Therefore, I attempted several lower NAM concentrations and assessed the purified V3 protein using ESI-MS. […] Thus, 10 mM NAM was added to the culture medium for the subsequent expression of V3 in E. coli.
DH10B cells harboring pEVOL-KfuRS and pBad-V3-2 plasmid were cultured in LB plus corresponding antibiotics. Protein expression was induced by adding 0.2% arabinose, 10 mM NAM, and 1 mM Kfu when O.D. 600 reached 0.4. After expression at 37° C. for 20 h, cells were harvested and washed with PBS. Protein purification was the same as sfGFP150Kfu except that 10 mM NAM was added to lysis buffer to prevent CobB deacylation. V3C was expressed and purified the same as V3.

The target in another assay is AF9 YEATS domain (human) (UniProt P42568). Nature of the assay: ITC, 25° C., 300 µM V3 titrated into 30 µM AF9 YEATS domain.
Another assay addresses T2, AF9 YEATS domain (Homo sapiens, UniProt P42568).
T2 sequence (P42568 1-138 limits assumed): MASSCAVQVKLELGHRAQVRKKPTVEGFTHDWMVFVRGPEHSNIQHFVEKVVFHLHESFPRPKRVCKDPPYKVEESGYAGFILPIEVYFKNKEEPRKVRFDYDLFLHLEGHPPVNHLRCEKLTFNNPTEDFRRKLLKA
As to the kind of experiment: Isothermal titration calorimetry (ITC) with AF9 YEATS domain. The settings on record: 25° C. In kind it is binding. The protocol:
Next, I tested whether V3 protein could bind to the YEATS domains and act as a YEATS domain inhibitor. Isothermal titration calorimetry (ITC) was performed to determine the dissociation constant (Kd) between V3 and all four YEATS domain-containing proteins in humans (i.e. AF9, ENL, Gas41, and YEATS2).
ITC was first performed with V3 protein and the AF9 YEATS domain.
Experiments were conducted at 25° C. on a MicroCal PEAQ-ITC titration calorimeter (MicroCal). The buffer for the titration is (150 mM NaCl, 50 mM HEPES, 1 mM TCEP, pH 7.5). Proteins were dialyzed to the titration buffer for overnight before the experiment. The reaction cell contained 200 μL of 30 μM YEATS domain proteins, which was titrated with 300 μM V3 or V3C proteins (10-fold higher than the YEATS domain protein concentration used). The titration contained 20 injections, first 0.5 μL, and all subsequent injections of 2 μL. The binding isotherm was fit with MicroCal PEAQ-ITC analysis software, using a single set of independent sites to determine the thermodynamic dissociation constants and stoichiometry.

In a further assay the target is T3, V3-GAL4/AF9-VP64 complex (Homo sapiens, UniProt P42568).
T3 construct: expressed in transfected cells; host or cells: HEK 293T
T3 sequence (P42568 1-568): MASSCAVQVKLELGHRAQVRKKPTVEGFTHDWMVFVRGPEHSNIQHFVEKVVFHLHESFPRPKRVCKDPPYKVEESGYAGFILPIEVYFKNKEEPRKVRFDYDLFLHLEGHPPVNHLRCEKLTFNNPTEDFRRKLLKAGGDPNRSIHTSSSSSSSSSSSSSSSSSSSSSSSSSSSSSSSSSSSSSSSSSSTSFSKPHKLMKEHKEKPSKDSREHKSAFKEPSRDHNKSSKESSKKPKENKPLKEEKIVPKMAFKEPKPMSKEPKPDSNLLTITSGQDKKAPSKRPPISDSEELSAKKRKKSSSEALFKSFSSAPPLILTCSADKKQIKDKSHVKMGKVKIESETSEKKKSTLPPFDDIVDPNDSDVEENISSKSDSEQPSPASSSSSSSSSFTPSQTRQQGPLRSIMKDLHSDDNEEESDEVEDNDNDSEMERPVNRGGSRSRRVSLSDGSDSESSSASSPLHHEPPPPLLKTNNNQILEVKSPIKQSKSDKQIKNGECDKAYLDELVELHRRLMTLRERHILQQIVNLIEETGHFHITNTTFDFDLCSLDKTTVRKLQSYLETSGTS
Nature of the assay: Luciferase-based two-hybrid assay (V3-GAL4 bait, AF9-VP64 prey). The settings on record: V3-GAL4 bait with AF9-VP64 prey, normalized to V3C-GAL4. In kind it is cell-based. The method, then: FIG. 34A-34D Luciferase-based two hybrid assay. (A) Schematic of the Luciferase-based two hybrid assay. (B) Schematic showing V3-GAL4 and V3C-GAL4 fusion proteins. (C) Immunoblotting analysis the expression of V3-GAL4 and V3C-GAL4 in the presence or absence of 1 mM Kfu in HEK 293T cells. (D) Relative luciferase signal of V3-GAL4 or V3C-GAL4 ‘bait’ in the presence of AF9-VP64 ‘prey’ protein, and with the addition of different concentrations of iMLLT. The luminescence of all the samples was normalized to the V3C-GAL4 sample. Error bars represent SEM from three biological replicates.
To solve the problems in current cell-based methods, as well as develop a robust cell-based technology for the in vivo screening and validation of YEATS domain inhibitors. We sought out to take advantage of the well-developed luciferase-based two-hybrid assay. In the two-hybrid assay, the genetically encoded YEATS domain probe was fused with a GAL4 DNA binding domain and served as ‘bait’, while a transcription activation domain (VP64) was linked to AF9 protein and acted as ‘prey’ (FIG. 34a, b, c). […]

No end group written: not given here.

T1 sequence (P75960 whole entry): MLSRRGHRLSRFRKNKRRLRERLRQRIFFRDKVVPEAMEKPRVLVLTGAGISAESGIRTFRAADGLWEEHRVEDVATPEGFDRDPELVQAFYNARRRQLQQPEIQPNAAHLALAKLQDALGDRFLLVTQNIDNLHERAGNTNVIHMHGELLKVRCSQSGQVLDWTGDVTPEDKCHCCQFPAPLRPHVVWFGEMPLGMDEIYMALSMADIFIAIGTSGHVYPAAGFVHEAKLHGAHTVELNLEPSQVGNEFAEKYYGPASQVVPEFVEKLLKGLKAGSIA

For “V3-NLS (mCherry): V3-NLS with C-terminal sfGFP replaced by red fluorescence mCherry protein (KQTARKSTGGHHHHHHKRPAATKKAGQAKKKKL; also: C-terminal mCherry fusion (carrier not in chain))”, in the assay with AF9 protein (inhibitor co-expressed, 2.5 μM SAHA added to all groups, no inhibitor control 4.7±0.2 s), the “half recovery time (t1/2) of AF9-sfGFP” value stood at 3.1 ± 0.2 s.

Consider `NC(=O)c1cccnc1` [NAM, nicotinamide], for which the “inhibition of the deacylation activity of CobB” value on CobB (10 mM NAM) is given as “sufficient to inhibit”; at CobB (20 mM NAM) it was “completely inhibits”.

Regarding `O=C(CCCCCCC(=O)Nc1ccccc1)NO` [SAHA, suberoylanilide hydroxamic acid], the “half recovery time (t1/2) of AF9-sfGFP” value in the assay on AF9 protein (SAHA 2.5 μM for 18 hours before FRAP, untreated 2.5±0.1 seconds) was found to be 4.7 ± 0.2 s. Also, the “final fluorescence (fluorescence at plateau), of the initial intensity” value in the assay with AF9 protein (SAHA-treated cells, untreated 90%) is listed as 75%.

Molecule “V3 protein (genetically encoded YEATS domain inhibitor V3; histone H3 (4-13) with 2-furancarbonyl lysine at K9 fused to sfGFP and 6×His tag) (designed binder)” had a Kd with AF9 YEATS domain (human) of 2350 nM.

With “V3C: control inhibitor: H3 (4-13) with a normal lysine at the H3 K9 site fused to N-terminal of sfGFP (KQTARKSTGG; also: C-terminus fused to sfGFP)”, the “dissociation constant (Kd)” value in the assay with AF9 YEATS domain is on record as “no detectable binding”.

B1: V3-GAL4: genetically encoded YEATS domain probe fused with a GAL4 DNA binding domain, 'bait' (protein)
chain: KQTARKSTGGMKLLSSIEQACDICRLKKLKCSKEKPKCAKCLKNNWECRYSPKTKRSPLTRAHLTEVESRLERLEQLFLLIFPREDLDMILKMDSLQDIKALLTGLFVQDNVNKDAVTDRLASVETDMPLTLRQHRISATSSSEESSNKGQRQLTVS
With B1, the “activation level of luciferase” value with V3-GAL4/AF9-VP64 complex is “around 20 folds”.

(Values after patent publication US20230272370A1, “GENETICALLY ENCODED YEATS DOMAIN PROBE AND APPLICATIONS THEREOF” (THE UNIVERSITY OF HONG KONG, priority 2020, published 2023).)
